Source: PMC12731536, “Sc(III) Complexes of Pyclen Derivative Ligands as Probes for Hypoxia: Synthesis, Chemical Characterization, ^44Sc‐Radiolabeling, and Preclinical Assessment” (Chemistry (Weinheim an Der Bergstrasse, Germany), 2025)

Key:
[1] = Acid‐assisted dissociation (decomplexation) of Sc(III) complexes, UV spectroscopy; format: physicochemical
Source text: The inertness of metal complexes is a basic requirement in all relevant modalities of medical imaging. Complexes of macrocyclic ligands are often more inert compared to open‐chain analogs. In order to assess the behavior of our complexes, the decomplexation of [Sc(PC2AM^nBu)]^+ and [Sc(PCTA)] was studied in a strongly acidic medium (cH + = 1.6 ‐ 2.6 M HClO4) by using UV spectroscopy. […] The primary Abs. versus time curves have been fitted by monoexponential function returning kobs (s^−1) values (Figures S22 and S23).
The plots of the rate constants as a function of acid concentration yielded linear relationships for both complexes (k obs = k 0 + k 1[H^+]). The slopes of these lines correspond to the rate coefficients characteristic for acid‐assisted dissociation (k 1), whereas the intercepts characterize the acid‐independent part, often referred to as a rate of spontaneous dissociation. […] The rate coefficients obtained during the fitting are summarized in Table 3, along with the half‐lives calculated from the rate coefficients by using 1 M acid concentration (t ½ = ln 2 / k obs).
Kinetic studies of the dissociation of the [Sc(PC2AMnBu)]^+ and [Sc(PCTA)] complexes were carried out by examining the dependence of the dissociation rates on acid concentration. Spectrophotometric measurements were conducted on a JASCO V‐760 spectrophotometer at λ = 280 nm. The concentration of the complex in the sample was 0.30 mM, and HClO4 was applied in concentrations ranging from 1.6 to 2.6 M. The evaluation of the measured data was performed with Scientist software ^[ [62] ^] to determine the k 0 (spontaneous) and k 1 (acid‐assisted) reaction rates.

[2] = Stability constants of Sc(III) complexes, out‐of‐cell (batch) samples, 45Sc NMR; format: physicochemical; conditions: I = 1.00 M NaCl; for pSc: pSc = ‐log[Sc(III)]free, cSc(III) = 1x10^−8 M, clig = 1x10^−7 M; for log K ScL: stability constant of the Sc(III) complex, T = 25 °C
Procedure: The stability constant of the complex of PC2AM^nBu ligand formed with Sc(III) ion was studied using “out‐of‐cell” (batch) samples using ^45Sc NMR spectroscopy in strongly acidic media. Typical ^45Sc NMR spectra are shown in Figure 5 along with the corresponding ^1H NMR spectra of the aromatic region of the ligand.
Using the ^45Sc NMR signal intensities of free Sc^3+ measured in the equilibrated samples, the stability constant, K ScL, was calculated by fitting the areas with the PSEQUAD program ^[ [47] ^] (Figure 6). The best fitting was observed by considering the simplest model including only [Sc(PC2AM^nBu)]^+ species; that is, the formation of protonated [Sc(HPC2AM^nBu)]^2+ cannot be confirmed.
The stability constant of the [Sc(PCTA)] complex was determined in a similar way (Figure S13). The results were summarized in Table 2, including the data of [Sc(DO3AM‐NI)], determined in our previous study.^[ [33] ^]
Among the complexes shown in Table 2, the [Sc(DO3AM‐NI)] complex has the highest stability, but its stability constant is lower than the corresponding values of [Sc(DOTA)]^− (log K ScL = 30.79) and [Sc(DTPA)]^2− (log K ScL = 27.43). ^[ [49] ^] As evidenced for DO3AM‐mono(amide) the replacement of acetate side chains with amide groups results in a decrease in stability constant (and conditional stability); therefore, we can see an order of magnitude difference between the stabilities of [Sc(PCTA)] and [Sc(PC2AM^nBu)]^+. Although these K ScL constants and pSc values are somewhat lower than those of the complexes formed with traditional DOTA and DTPA ligands, these chelators remain remarkably good Sc(III)‐binding chelators. […] Therefore, following the proposal of M. Meyer and colleagues,^[ [48] ^] […] For the AL/M values, 1 corresponds to 90%, 2 corresponds to 99%, 3 corresponds to 99.9% etc. for complex formation. […] The AL/M data of the [Sc(PC2AM^nBu)]^+ complex only exceeds that of the [Sc(DO3AM‐NI)] complex in the pH < 3.0 range, which can be advantageous for labeling at low pH. Furthermore, based on the data in Table 2, it can be concluded that for these systems there is no discrepancy between the trends observed in the pSc and AL/M values.
The stability constant of [Sc(PC2AM^nBu)]^+ and [Sc(PCTA)] complexes was studied using “out‐of‐cell” (batch) samples using ^45Sc and ^1H NMR spectroscopy. The NMR spectra were obtained using a Bruker Avance II DRX spectrometer (9.4 T), equipped with Bruker Variable Temperature Unit, Bruker Cooling Unit, and a 5 mm BB inverse z gradient probe. For the investigation of [Sc(PC2AMnBu)]⁺, twelve samples (cSc(III) = 3.00 mM, cligand = 3.06 mM, in the pH range of –log[H^+] = 0.1–1.3; I = 1.0 M NaCl/HCl) were prepared in NMR tubes and kept at 25 °C for one week to reach equilibrium. During this period, ^1H and ^45Sc NMR measurements were performed daily to monitor changes in signal intensities. No significant changes were detected after one week, even in the most acidic sample. The intensities of the free Sc(III) signals were normalized using a standard 50 mM ScCl3 solution containing 1 M HCl (20% D2O). For the determination of the stability of the [Sc(PCTA)] complex, eleven “batch” samples (cSc(III) = 4.00 mM, cligand = 4.08 mM), in the pH range of –log[H^+] = 0.1–1.25, were prepared. The evaluation of the measured data was performed using the PSEQUAD program.^[ [47] ^] Samples were prepared in H2O, with 10% D2O added for deuterium lock. The actual resonance frequencies for ^1H, ^13C, ^19F, and ^45Sc are indicated in the text and figure captions. The chemical shifts of ^1H and ^13C were calibrated using an external TMS standard, while ^19F was referenced to CCl3F. The ^45Sc NMR shift was calibrated to 0 ppm using a 5 mM solution of ScCl3 in 0.1 M HCl.

[3] = dissociation of the Sc(III) complex, 1.6‐2.6 M HClO4, 25 °C, I = 2.6 M

SMILES	k 0 (spontaneous dissociation) [1, 3]	k 1 (acid‐assisted dissociation) [1, 3]	AL/M (relative affinity) ([2]; [Sc(III)]total = 10 nM, [L]tot = 100 nM, pH = 7.4)	pSc ([2]; pH = 7.4)	log K ScL [2]	t 1/2 of dissociation (1 M H^+) ([1]; calculated from rate coefficients at 1 M acid concentration, 25 °C)
O=C(O)CN1CCN(CC(=O)O)Cc2cccc(n2)CN(CC(=O)O)CC1 [PCTA, reference compound]	(4.21 ± 0.81) x 10^−6 s^−1	(2.11 ± 0.38) x 10^−6 M^−1s^−1	7.14	21.28	22.41(9)	
CCCCNC(=O)CN1CCN(CC(=O)[O-])Cc2cccc(n2)CN(CC(=O)[O-])CC1.[Sc+3] [[Sc(PC2AM^nBu)]^+]				19.32	19.53(4)	22 days
